Patent EP4241766A1, “USE OF OLFACTORY RECEPTOR OR13A1 LIGANDS IN THE TREATMENT OF LYMPHOMAS” (Fondazione Per L'Istituto Oncologico Di Ricerca (IOR), priority 2022, dated 2023)

Key:
[1] = tested on: U2932 DLBCL cell line; experiment: Growth/viability of U2932 cells with doxycycline-inducible shRNA system targeting OR13A1; assay type: cell-based
From the text: • Figure 1. Expression of OR13A1 across lymphoma cell lines as measured by RNA-Seq. A) Heatmap is based on log2 CPM (counts per million). Scale ranges from low (white) to high expression (black). Each horizontal represents the value for one cell line. GCB DLBCL, diffuse large B-cell lymphoma of the germinal center B-cell-type; ABC DLBCL, diffuse large B-cell lymphoma of the activated B-cell-like; MCL, mantle cell lymphoma; MZL, marginal zone lymphoma; CLL, chronic lymphocytic leukemia; PMBCL, primary mediastinal large B-cell lymphoma; BL, Burkitt lymphoma. B) OR13A1 expression level by cell of origin in DLBCL cell lines, the expression was higher in cells derived from germinal center (GC) B-cell type (GCB) than activated B cell like (ABC) DLBCL (P value = 0.03). • Figure 2. OR13A1 silencing is associated with reduction in cell viability of DLBCL cells. Left panel, real-time PCR showing reduction of OR13A1 72h after siRNA treatment. Right panel, Reduction of cell viability, measured with MTT, in DLBCL cells after gene silencing. • Figure 3. Homology model of OR13A1 with two ligands. A) cyclohexanone docked onto the orthosteric binding site. B) tyramine docked onto the orthosteric binding site. Residues identified in the model to interact with the tyramine, potentially relevant for the receptor activation, are shown in sticks, D221 and T297. • Figure 4. […] Experiments were done using U2932 cells with the doxycycline-inducible shRNA system, exposed or not to cyclohexanone (25µM). The red arrow indicates the addition of cyclohexanone. CH, cyclohexanone; sh1, doxycycline-inducible shRNA targeting OR13A1; shCNT, scramble doxycycline-inducible shRNA.
Cellular experiments followed with cyclohexanone and, among the predicted ligands, tyramine using the U2932 DLBCL cell line with the doxycycline-inducible shRNA system.

[2] = biological target: T1, Olfr211 (Mus musculus, UniProt Q8VGH2); settings: experimentally demonstrated, reference [52]; cited from earlier work
T1 sequence (Q8VGH2 1-309): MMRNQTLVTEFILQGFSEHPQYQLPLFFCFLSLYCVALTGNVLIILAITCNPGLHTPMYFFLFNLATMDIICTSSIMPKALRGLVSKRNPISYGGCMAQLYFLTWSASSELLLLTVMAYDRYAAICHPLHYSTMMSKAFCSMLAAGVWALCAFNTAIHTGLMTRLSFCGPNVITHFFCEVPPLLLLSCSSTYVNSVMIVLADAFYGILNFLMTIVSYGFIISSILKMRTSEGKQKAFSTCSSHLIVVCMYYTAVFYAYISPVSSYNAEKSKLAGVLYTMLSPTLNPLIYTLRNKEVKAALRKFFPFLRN

[3] = tested on: Olfr1484; settings: experimentally demonstrated, reference [52]; cited from earlier work

| Structure (SMILES) | lymphoma cell viability ([1]; U2932, in the presence of the GPCR (OR13A1), Figure 4) | effect on growth of DLBCL cells ([1]; U2932 cells, cyclohexanone 25µM, absence of OR13A1 (sh1), Figure 4) | growth of DLBCL cells ([1]; U2932 cells, cyclohexanone 25µM, Figure 4) | ligand of Olfr211 [2] | ligand of Olfr1484 [3] | lymphoma cell line growth ([1]; U2932 DLBCL cell line, doxycycline-inducible shRNA system) |
| --- | --- | --- | --- | --- | --- | --- |
| O=C1CCCCC1 [cyclohexanone] | decreased the lymphoma cell viability in the presence | The absence of OR13A1 abrogates the effect | reduces the growth of DLBCL cells | ligand | ligand | – |
| NCCc1ccc(O)cc1 [tyramine] | – | – | – | – | – | increased lymphoma cell line growth |
